Measurements taken from US20150099270A1, “METHOD OF SCREENING PHARMACEUTICALS FOR DRUG INTERACTIONS AND NEPHROTOXICITY” (priority 2013, published 2015).

Columns and labels:
[1] = human, in vivo
From the text: The purpose of this study is to quantify plasma and urinary acetyl-PAH as a measure of tubular function, in the presence of simultaneous measurement of GFR (iothalamate clearance) in healthy subjects. […] Subjects receiving drugs known to interfere with tubular secretion based on a current review of available literature, or a history of known allergic or adverse reactions to diagnostic iodine containing compounds including iothalamate, or PAH were excluded. Subjects with preexisting liver disease (including hepatitis), increased INR, liver transaminases (AST/ALT), bilirubin, serum albumin<3.0 g/dL. Iothalamate (Conray®, Mallinkrodt), and PAH (Merck) infusions were prepared on the morning of the study visit.
On the study day, each subject reported to the General Clinical Research Unit (GCRC) by 8:00 AM on study visit days. A 6-mL blood sample was be obtained for biochemistries (BUN, serum creatinine) and a spot urine sample was obtained for protein:creatinine ratio. Vital signs (heart rate, blood pressure, respiratory rate) were recorded half-hourly throughout each study visit. Subjects had intravenous catheters inserted into forearm veins of each arm for blood collection and intravenous infusion of iothalamate and PAH. […]
Throughout the study, all blood samples were collected in heparinized (green top) tubes, placed on ice immediately, centrifuged within 15 minutes (4,000 RPM), split into 2 plasma aliquots and frozen at −20° C. until analyzed. […] Urine was be placed on ice immediately after collection, and three 8 mL aliquots were frozen at −20° C. until analyzed. The total volume of urine was measured for each collection interval. A 5 mL aliquot of each IV infusate was collected and frozen at −20° C. until analyzed.
Iothalamate and PAH: Iothalamate and PAH concentrations in plasma and urine will be determined using an HPLC assay method developed in our laboratory. […] Separation is achieved using a C18 column, and effluent is monitored at a wavelength of 254 ηm. […]

[2] = dogs with azotemia, p=0.025; cited from earlier work
HK-2 cells = assay: PAH metabolism experiment in HK-2 cells (acetyl-PAH formation quantified by HPLC); type: in vitro ADME, human
Procedure: Acetyl-PAH was quantified by HPLC using a Waters 2690 Separation Module. […] The runtime was 25 minutes for all samples.
HK2 cells were grown in 15 ml of Dulbecco's Modified Eagle Medium (DMEM)/F12 media with 10% Fetal Bovine Serum (FBS) and incubated at 37° C. with 5% CO2. After 5 days of culture, each 75 cm^2 flask of cells was transferred to 2 mls of the culture media and incubated with 200 μg/ml of PAH except for the negative control where no PAH was added. Cells were incubated for 4, 8 and 18 hours each (in triplicate) with or without PAH (control). Cells post incubation were lysed via sonication for 1 minute, then centrifuged at 14,000 RPM for 10 minutes. The supernatant was extracted and acetyl-PAH was quantified by HPLC. After 5 days of culture, the HK2 cell monolayers reached confluence (FIG. 1).
• 1. HK2 cells were grown in 15 ml of Dulbecco's Modified Eagle Medium (DMEM)/F12 media with 10% Fetal Bovine Serum (FBS) and incubated at 37° C. with 5% CO2. […]
Acetyl-PAH was quantified by HPLC using a Waters 2690 Separation Module. […] Quantification of acetyl-PAH formation was determined by calculating the area under the curve for each sample time-point, and determining the cumulative appearance over the entire incubation period (up to 18 hours).

Structure (SMILES) | Rsec (total rate of tubular secretion) [1] | renal extraction [2] | metabolism of PAH to acetyl-PAH (HK-2 cells; HK2 cells, 200 μg/ml PAH, 4, 8 and 18 hours) | appearance of acetyl-PAH metabolite in urine and plasma [1] | mean (±SD) naPAH metabolite concentration (HK-2 cells; HK-2 cells incubated with PAH, HPLC)
Nc1ccc(C(=O)NCC(=O)O)cc1 [PAH, Para-aminohippuric acid] | 382 ± 154 mL/min | 0.57 | time dependent fashion |  | 
CC(=O)Nc1ccc(C(=O)NCC(=O)O)cc1 [acetyl-PAH, 2-[(4-acetamidobenzoyl)amino]acetic acid] | 581 ± 191 mL/min |  |  | appears in high quantities in the urine and plasma | increased over time
CC[N+](CC)(CC)CC [TEA, tetraethylammonium] |  | 0.80 |  |  | 
